Legend:
Assay in all cases: biochemical
Parameters in all cases: Invitrogen kinase panel: Z'Lyte activity (ATP at Km) or LanthaScreen competitive ATP-site binding, percent inhibition
[1] = biological target: T1, MST1 (Homo sapiens, UniProt Q13043)
T1 construct: gene STK4

[2] = biological target: AKT2 (Homo sapiens, UniProt P31751)
[3] = biological target: SPHK1 (Homo sapiens, UniProt Q9NYA1)
[4] = biological target: T2, CK1_delta (Homo sapiens, UniProt P48730)
T2 construct: gene CSNK1D

[5] = biological target: T3, Mer (Homo sapiens, UniProt Q12866)
T3 construct: gene MERTK

[6] = biological target: ERN1 (Homo sapiens, UniProt O75460)
[7] = biological target: T4, PhK_gamma2 (Homo sapiens, UniProt P15735)
T4 construct: gene PHKG2

[8] = biological target: CLK2 (Homo sapiens, UniProt P49760)
[9] = biological target: T5, CaMKII_beta (Homo sapiens, UniProt Q13554)
T5 construct: gene CAMK2B

[10] = biological target: T6, CaMKI_delta (Homo sapiens, UniProt Q8IU85)
T6 construct: gene CAMK1D

[11] = biological target: T7, MSK1 (Homo sapiens, UniProt O75582)
T7 construct: gene RPS6KA5

[12] = biological target: ACVR2B (Homo sapiens, UniProt Q13705)
[13] = biological target: GRK2 (Homo sapiens, UniProt P25098)
[14] = biological target: T8, PKC_theta (Homo sapiens, UniProt Q04759)
T8 construct: gene PRKCQ

[15] = biological target: CAMKK1 (Homo sapiens, UniProt Q8N5S9)
[16] = biological target: T9, MST2 (Homo sapiens, UniProt Q13188)
T9 construct: gene STK3

[17] = biological target: T10, MSSK1 (Homo sapiens, UniProt Q9UPE1)
T10 construct: gene SRPK3

[18] = biological target: JAK2 (Homo sapiens, UniProt O60674)
[19] = biological target: T11, Rsk3 (Homo sapiens, UniProt Q15349)
T11 construct: gene RPS6KA2

[20] = biological target: MELK (Homo sapiens, UniProt Q14680)
[21] = biological target: T12, IKK_alpha (Homo sapiens, UniProt O15111)
T12 construct: gene CHUK

[22] = biological target: GRK5 (Homo sapiens, UniProt P34947)
[23] = biological target: Frk (Homo sapiens, UniProt P42685)
[24] = biological target: EphA3 (Homo sapiens, UniProt P29320)
[25] = biological target: mTOR (Homo sapiens, UniProt P42345)

Chain of SPHK1 (Q9NYA1 whole entry): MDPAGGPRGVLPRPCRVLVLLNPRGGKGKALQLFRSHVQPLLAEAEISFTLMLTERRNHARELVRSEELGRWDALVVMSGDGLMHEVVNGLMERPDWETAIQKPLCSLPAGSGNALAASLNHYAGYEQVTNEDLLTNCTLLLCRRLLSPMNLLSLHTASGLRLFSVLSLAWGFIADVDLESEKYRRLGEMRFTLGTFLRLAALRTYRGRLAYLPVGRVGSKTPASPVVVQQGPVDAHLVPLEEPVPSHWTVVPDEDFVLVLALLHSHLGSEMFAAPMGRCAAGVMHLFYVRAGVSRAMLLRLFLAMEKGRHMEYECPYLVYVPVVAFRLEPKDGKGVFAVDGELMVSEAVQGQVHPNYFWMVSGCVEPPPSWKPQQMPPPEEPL
T5 sequence (Q13554 whole entry): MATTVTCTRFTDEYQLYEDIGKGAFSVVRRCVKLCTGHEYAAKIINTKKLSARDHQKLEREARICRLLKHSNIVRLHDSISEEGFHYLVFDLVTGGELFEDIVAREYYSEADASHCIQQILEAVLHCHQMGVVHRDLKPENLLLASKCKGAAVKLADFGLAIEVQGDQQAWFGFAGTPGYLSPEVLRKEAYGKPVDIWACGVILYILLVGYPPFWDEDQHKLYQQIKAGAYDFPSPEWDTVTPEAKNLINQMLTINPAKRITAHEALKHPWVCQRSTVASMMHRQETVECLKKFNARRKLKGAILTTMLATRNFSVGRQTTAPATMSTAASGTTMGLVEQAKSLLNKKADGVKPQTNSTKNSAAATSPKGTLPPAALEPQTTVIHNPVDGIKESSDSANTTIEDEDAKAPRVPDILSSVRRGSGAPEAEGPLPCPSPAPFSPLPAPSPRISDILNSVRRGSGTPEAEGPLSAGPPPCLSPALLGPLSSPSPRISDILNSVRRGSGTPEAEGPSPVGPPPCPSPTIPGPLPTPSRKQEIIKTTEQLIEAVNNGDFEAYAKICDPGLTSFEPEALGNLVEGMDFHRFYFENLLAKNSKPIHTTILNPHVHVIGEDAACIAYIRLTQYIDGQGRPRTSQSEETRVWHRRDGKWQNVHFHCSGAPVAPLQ
Chain of CAMKK1 (Q8N5S9 whole entry): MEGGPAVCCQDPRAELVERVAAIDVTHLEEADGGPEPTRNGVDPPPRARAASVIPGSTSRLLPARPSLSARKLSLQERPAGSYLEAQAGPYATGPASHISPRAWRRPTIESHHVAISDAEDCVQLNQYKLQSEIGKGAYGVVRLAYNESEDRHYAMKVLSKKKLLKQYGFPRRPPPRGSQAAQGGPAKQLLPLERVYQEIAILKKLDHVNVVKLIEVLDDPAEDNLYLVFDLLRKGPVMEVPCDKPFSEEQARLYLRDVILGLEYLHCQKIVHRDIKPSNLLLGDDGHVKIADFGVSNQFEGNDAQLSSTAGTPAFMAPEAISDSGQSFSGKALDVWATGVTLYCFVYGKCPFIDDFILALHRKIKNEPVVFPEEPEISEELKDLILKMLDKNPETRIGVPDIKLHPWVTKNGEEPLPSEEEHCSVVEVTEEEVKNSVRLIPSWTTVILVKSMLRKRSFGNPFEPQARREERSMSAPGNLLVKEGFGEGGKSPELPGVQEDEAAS
Chain of GRK5 (P34947 whole entry): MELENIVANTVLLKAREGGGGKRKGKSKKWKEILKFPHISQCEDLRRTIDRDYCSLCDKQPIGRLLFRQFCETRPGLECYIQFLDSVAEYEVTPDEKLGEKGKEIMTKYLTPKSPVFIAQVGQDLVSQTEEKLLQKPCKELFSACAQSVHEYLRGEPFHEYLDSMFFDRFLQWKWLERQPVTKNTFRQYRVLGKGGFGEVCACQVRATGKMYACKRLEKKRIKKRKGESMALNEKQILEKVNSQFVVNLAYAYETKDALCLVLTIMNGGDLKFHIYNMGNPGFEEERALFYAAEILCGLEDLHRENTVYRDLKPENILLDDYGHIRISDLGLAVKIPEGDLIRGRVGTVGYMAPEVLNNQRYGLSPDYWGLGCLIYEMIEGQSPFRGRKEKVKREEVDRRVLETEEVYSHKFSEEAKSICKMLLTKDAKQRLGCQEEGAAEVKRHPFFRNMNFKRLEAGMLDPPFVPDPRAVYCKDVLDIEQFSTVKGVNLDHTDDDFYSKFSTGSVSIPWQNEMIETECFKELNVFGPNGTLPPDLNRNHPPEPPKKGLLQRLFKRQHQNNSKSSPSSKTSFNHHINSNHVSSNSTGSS
T6 sequence (Q8IU85 whole entry): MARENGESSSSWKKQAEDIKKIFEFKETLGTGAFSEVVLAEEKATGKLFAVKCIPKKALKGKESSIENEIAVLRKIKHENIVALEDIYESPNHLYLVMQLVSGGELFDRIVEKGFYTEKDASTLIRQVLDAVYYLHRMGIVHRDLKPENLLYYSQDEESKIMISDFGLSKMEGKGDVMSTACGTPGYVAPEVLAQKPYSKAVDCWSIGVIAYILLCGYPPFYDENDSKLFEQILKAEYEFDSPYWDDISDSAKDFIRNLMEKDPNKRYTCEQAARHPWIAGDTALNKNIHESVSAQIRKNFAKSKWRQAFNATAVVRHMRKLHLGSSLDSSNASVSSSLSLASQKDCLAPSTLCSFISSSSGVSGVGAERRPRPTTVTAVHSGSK
T3 sequence (Q12866 whole entry): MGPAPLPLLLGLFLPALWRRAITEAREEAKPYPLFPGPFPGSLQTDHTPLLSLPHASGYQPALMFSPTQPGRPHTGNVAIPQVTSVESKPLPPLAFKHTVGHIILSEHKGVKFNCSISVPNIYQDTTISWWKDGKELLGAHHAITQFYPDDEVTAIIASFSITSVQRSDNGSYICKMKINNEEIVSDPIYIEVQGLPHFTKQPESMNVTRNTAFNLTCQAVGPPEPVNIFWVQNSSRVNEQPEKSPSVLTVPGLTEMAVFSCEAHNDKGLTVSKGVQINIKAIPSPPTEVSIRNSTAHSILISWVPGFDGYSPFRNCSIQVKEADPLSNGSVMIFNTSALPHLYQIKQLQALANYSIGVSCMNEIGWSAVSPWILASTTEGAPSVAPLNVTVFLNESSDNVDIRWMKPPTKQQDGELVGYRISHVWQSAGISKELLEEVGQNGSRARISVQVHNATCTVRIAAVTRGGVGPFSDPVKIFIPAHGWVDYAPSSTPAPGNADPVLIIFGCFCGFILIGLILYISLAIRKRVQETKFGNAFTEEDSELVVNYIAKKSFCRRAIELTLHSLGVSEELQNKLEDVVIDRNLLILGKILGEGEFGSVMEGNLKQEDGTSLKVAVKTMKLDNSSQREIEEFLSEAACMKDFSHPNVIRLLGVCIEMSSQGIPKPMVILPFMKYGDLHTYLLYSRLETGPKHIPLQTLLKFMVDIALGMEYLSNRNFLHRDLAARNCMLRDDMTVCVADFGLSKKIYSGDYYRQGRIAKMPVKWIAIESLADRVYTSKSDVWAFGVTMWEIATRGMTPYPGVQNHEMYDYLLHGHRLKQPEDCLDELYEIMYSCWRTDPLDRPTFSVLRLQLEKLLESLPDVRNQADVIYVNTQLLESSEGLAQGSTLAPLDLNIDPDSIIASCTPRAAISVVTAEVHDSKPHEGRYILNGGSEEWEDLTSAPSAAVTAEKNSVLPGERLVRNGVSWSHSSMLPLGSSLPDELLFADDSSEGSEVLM
T10 sequence (Q9UPE1 whole entry): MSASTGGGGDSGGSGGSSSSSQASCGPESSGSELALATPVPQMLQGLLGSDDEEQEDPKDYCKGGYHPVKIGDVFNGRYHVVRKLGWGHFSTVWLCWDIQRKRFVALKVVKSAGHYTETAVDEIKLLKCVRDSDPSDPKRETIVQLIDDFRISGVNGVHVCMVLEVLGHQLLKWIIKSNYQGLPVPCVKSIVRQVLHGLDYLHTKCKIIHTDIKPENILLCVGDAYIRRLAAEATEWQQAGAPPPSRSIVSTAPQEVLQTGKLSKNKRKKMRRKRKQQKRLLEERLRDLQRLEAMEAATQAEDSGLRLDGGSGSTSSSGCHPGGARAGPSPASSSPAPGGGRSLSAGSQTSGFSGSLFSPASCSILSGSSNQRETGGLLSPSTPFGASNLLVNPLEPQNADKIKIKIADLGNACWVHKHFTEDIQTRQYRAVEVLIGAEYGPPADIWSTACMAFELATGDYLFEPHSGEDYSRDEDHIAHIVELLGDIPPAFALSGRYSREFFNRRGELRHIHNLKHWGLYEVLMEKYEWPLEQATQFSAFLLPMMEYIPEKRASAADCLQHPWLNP
T8 sequence (Q04759 whole entry): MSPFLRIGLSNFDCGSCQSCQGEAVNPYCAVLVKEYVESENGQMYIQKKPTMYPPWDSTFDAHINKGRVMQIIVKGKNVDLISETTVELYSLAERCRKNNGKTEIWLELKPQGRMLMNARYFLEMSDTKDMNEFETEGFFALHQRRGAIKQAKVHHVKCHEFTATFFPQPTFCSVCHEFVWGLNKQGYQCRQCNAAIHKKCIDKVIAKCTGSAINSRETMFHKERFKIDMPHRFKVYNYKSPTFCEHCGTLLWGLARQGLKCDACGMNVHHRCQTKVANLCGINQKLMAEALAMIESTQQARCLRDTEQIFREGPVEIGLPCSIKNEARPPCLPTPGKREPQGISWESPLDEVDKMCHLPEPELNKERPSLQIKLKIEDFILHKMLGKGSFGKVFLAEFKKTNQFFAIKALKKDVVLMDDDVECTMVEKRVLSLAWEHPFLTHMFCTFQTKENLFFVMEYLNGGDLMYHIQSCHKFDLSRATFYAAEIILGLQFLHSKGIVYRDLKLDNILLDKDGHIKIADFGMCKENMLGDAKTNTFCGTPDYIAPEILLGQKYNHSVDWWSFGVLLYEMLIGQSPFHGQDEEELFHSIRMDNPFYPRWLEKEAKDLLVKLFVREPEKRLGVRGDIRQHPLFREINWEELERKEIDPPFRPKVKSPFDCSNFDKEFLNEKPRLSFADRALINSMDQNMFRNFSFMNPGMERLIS

Structure (SMILES)	inhibition at 1 µM [1]	inhibition at 1 µM [2]	inhibition at 1 µM [3]	inhibition at 1 µM [4]	inhibition at 1 µM [5]	inhibition at 1 µM [6]	inhibition at 1 µM [7]	inhibition at 1 µM [8]	inhibition at 1 µM [9]	inhibition at 1 µM [10]	inhibition at 1 µM [11]	inhibition at 1 µM [12]	inhibition at 1 µM [13]	inhibition at 1 µM [14]	inhibition at 1 µM [15]	inhibition at 1 µM [16]	inhibition at 1 µM [17]	inhibition at 1 µM [18]	inhibition at 1 µM [19]	inhibition at 1 µM [20]	other results
CCOC(=O)Nc1cccc2c(Oc3ncccc3-c3ccnc(N[C@H]4CCCNC4)n3)c(C)ccc12 [G-1749]	1%	6%	14.5%	3%	4.5%	99.5%	2.5%	18.5%	-2%	0%	-3%	18.5%	2%	1.5%	3.5%	5.5%	-1.5%	2.5%	10%	33%	inhibition at 1 µM [21]: -3.5%; inhibition at 1 µM [22]: -3%; inhibition at 1 µM [23]: 10.5%; inhibition at 1 µM [24]: 1%; inhibition at 1 µM [25]: 5%
CC#CC(=O)Nc1cccc2c(Oc3ncccc3-c3ccnc(N[C@H]4CCCNC4)n3)c(C)ccc12 [G-7658]	-0.5%	4%	-5%	5.5%	4.5%	106%	4%	23%	0.5%	0.5%	-6%	8.5%	1%	0%	5.5%	2.5%	7%	3%	9%	19.5%	inhibition at 1 µM [21]: -2%; inhibition at 1 µM [22]: -3%; inhibition at 1 µM [23]: 1.5%; inhibition at 1 µM [24]: 4.5%; inhibition at 1 µM [25]: 7%

— article PMC7736581, “Activation of the IRE1 RNase through remodeling of the kinase front pocket by ATP-competitive ligands” (Nature Communications, 2020)
